# Where “and” joins values, the source holds several entries; their conditions need not be identical. Equal values may be shown once. Where a name gives a salt, the structure may show the parent alone. Read-outs that look alike come from different tables or passages of the source.
# Columns and labels:
# cough pulses [1] = experiment: Citric acid aerosol cough test in guinea pigs, subcutaneous, 30 min (method of Friebel and Reichle), Comparative test 1; format: in vivo; conditions: s.c.; for ED50: Cavia porcellus, sc, 0.5 h, 30 min after administering, 20% citric acid aerosol, 8 min
# Procedure: In order to compare the anti-cough effectiveness of codeine phosphate with the effectiveness of the different isomers of glaucine hydrobromide, the testing method of Friebel and Reichle was used. 60 guinea pigs with weights between 200 and 300 g were divided up into ten groups of different sizes. Before administering the active substance, each animal was subjected, on the same day as the day of test with the active substance, for a period of 8 minutes to an aerosol of 20% citric acid, the animal being confined in a chamber at constant air pressure. During this control test the number of cough pulses was counted with the help of a pressure transmitter. From these measurements an average control value for each group was calculated. After this preliminary control test, there was given subcutaneously to each animal of each group a suspension of the active substance in 1% sodium carboxymethyl cellulose. After 30 minutes each animal was again exposed in the test chamber for 8 minutes to the aerosol of 20% citric acid and the number of cough pressure pulses recorded. The different active substances were administered in increasing doses ranging from 3 mg/kg to 100 mg/kg of body weight. Altogether eight different doses were given. The results were expressed as percent deviation from the average control value for the group on the same day, the deviation being entered in a diagram against the logarithm of the dose administered. From the resulting effectiveness curve, based on the logarithm of the dose, the coefficient of correlation and the ED50 were calculated for each active substance, by the regression analysis method of Downie and Heath (1965). The values obtained for codeine phosphate, for d-glaucine hydrobromide, for d,l-glaucine hydrobromide and for l-glaucine hydrobromide thirty minutes after administering the active substance are summarized in Table I.
# intestinal motility = experiment: Intestinal motility / evacuation action of stomach-intestinal tract of mice (carbon suspension), Comparative test 2; format: in vivo; conditions: s.c.; for Distance travelled average % (of intestine length): 2 h, control 74.3%, * = significantly different from control (p < 0.05)
# Description: One of the most unpleasant side effects of anti-cough medicine containing codeine is constipation and the occurrence of intestinal spasms. A model test for determining the effects of anti-cough active substances on intestinal motility and on the evacuation action of the stomach-intestinaltract of mice was therefore made. After subcutaneous injection of the active substance, each animal was given, through a throat probe, a 10% suspension of carbon in a 5% aqueous slurry of gum arabic. Two hours later the intestine was sectioned and the distance of stomach coecum measured, and also the distance travelled by the carbon, which was expressed as percent of intestine length.
# The effects of codeine phosphate, of d-glaucine hydrobromide and of l-glaucine hydrobromide on intestinal motility were determined at different doses. For each dose the average value was calculated for a sufficient number of animals.
# [2] = system: isolated guinea pig intestines (contractions induced by electric voltages); experiment: Suppression of electrically induced contractions in isolated guinea pig intestines, Comparative test 4; design: electrically induced contractions (Table III): unit not given here
# Procedure: In a further series of tests the effects of different doses of codeine phosphate in suppressing contractions induced in isolated guinea pig intestines by electric voltages were tested. For this purpose one electrode was immersed in the solution surrounding the intestinal preparation. The second electrode was connected to the preparation at the attachment point.
# anti-cough effectiveness = experiment: Oral anti-cough effectiveness in guinea pigs, 5% acid aerosol, Comparative test 8; format: in vivo; conditions: 1 h before 10 min exposure to 5% acid aerosol, last 5 minutes measured
# [3] = system: isolated guinea pig intestine (spasms induced by carbachol); experiment: Suppression of spasms induced by carbachol in isolated guinea pig intestine; conditions: Cavia porcellus, read-out: concentration effective against carbachol induced spasms
# Description: In further tests it was investigated in what concentrations the active substances being compared suppress spasms induced in isolated guinea pig intestine by carbachol or histamine. […] On the other hand d,l-glaucine was effective against histamine at molar concentrations of only 4×10^-8 to 4×10^-6 and against carbachol at molar concentrations of only 4×10^-7.
# mice = experiment: Toxicity (LD50) in mice by the Wilcox method, Comparative test 7; format: in vivo
# Procedure: (§1) The toxicity thresholds of codeine phosphate, of d-glaucine hydrobromide and of d,l-glaucine hydrobromide were determined in mice by the Wilcox method. […] The toxicities of codeine phosphate and d,l-glaucine hydrobromide are about equal.
# coughing centre = experiment: Coughing reflex by electrical stimulation of upper laryngeal nerves of anaesthetized cats (method of Domenjoz), Comparative test 5; format: in vivo; conditions: intravenous, anaesthetized cats
# Procedure: In a series of tests conducted by the method of Domenjoz, the effects of the different active substances on the coughing centre was examined by electrical stimulation of the upper laryngeal nerves of anaesthetized cats. Electrical stimulation of the nerve produces a coughing reflex and the intention is to reduce this by intravenous injection of the active substance. The minimal effective dose MED is determined by increasing the dose from 0.1 mg/kg of body weight up to 0.3 mg/kg, 1.0 mg/kg, 3.0 mg/kg and 6.0 mg/kg, until the dose is sufficient for completely suppressing the coughing reflex.
# In these tests each animal was given, on the one hand, codeine and, on the other hand, at sufficient time intervals also glaucine, so that the ratio of the minimal effective doses of glaucine and codeine can be deduced.
# cough pulses [4] = experiment: Oral citric acid aerosol cough test in guinea pigs, time course 1-24 h, Comparative test 6; format: in vivo; conditions: codeine phosphate 75, d,l-glaucine hydrobromide 150, hydrochloride 135, embonate 378 mg/kg
# Procedure: In a further comparative test, 40 female guinea pigs with body weights between 230 and 500 g were divided into 4 groups and each animal was again subjected to the action of a 20% citric acid aerosol for 8 minutes. From the control values thus obtained the average control value for each group was calculated. Each animal of each group was then given, by means of a throat probe, either 75 mg/kg of codeine phosphate, or 135 mg/kg of d,l-glaucine hydrochloride, or 150 mg/kg of d,1-glaucine hydrobromide, or 378 mg/kg of d,l-glaucine embonate. These doses are the equimolar quantities, based on glaucine. After a period of 1, or 3, or 5, or 24 hours each animal was again subjected for 8 minutes to the action of the citric acid aerosol, and the number of cough pulses during this period was recorded. The values thus obtained were compared with the control values and the percent deviation of the average measured value for each group, from the average control value, was calculated.
# [5] = system: isolated guinea pig intestines (contractions induced by electric voltages); experiment: Suppression of electrically induced contractions in isolated guinea pig intestines, Comparative test 4; conditions: isolated guinea pig intestine; codeine: increased doses; d-glaucine: higher concentrations than 4×10^-5; d,l-glaucine: 4×10^-5 to 6×10^-5
# [6] = Toxicity (LD50) in mice by the Wilcox method, Comparative test 7; format: in vivo; conditions: mouse, in vivo
# Procedure: as §1
# cough pulses [7] = experiment: Oral citric acid aerosol cough test in guinea pigs, 1 h (equivalent effective doses), Comparative test 6; format: in vivo; conditions: for Cough pulses percent of control value: 20% citric acid aerosol 8 min
smiles,measurement,setting,value
COc1cc2c(cc1OC)-c1c(OC)c(OC)cc3c1[C@@H](C2)N(C)CC3 [l-glaucine hydrobromide],ED50,cough pulses [1],31.2 mg/kg
same,"ED50 value, comparison in words",cough pulses [1]; 30 min,considerably lower effective dose ED50 value compared to d-glaucine hydrobromide
same,Distance travelled average % (of intestine length),intestinal motility; 3 mg/kg,74.3%
same,"intestinal activity, in words",intestinal motility; 10 mg/kg,significant increase in intestinal activity
same,Distance travelled average % (of intestine length),intestinal motility; 10 mg/kg,94.3%
same,"intestinal motility, in words",intestinal motility; 30 mg/kg and 100 mg/kg,considerably more than the corresponding values for d-glaucine hydrobromide and codeine phosphate
same,Distance travelled average % (of intestine length),intestinal motility; 30 mg/kg,85.4%
same,Distance travelled average % (of intestine length),intestinal motility; 100 mg/kg,51.8%
same,"suppression of electrically induced contraction reflexes, in words",[2]; 4×10^-5,"more effectively suppressed, compared to what is obtained using d-glaucine hydrobomide"
same,"suppression of electrically induced contractions, in words",[2]; 8×10^-5,suppressed even more effectively
same,electrically induced contractions (Table III),"[2]; molar concentration 1 × 10^-5, hydrobromide",71 and 74
same,electrically induced contractions (Table III),"[2]; molar concentration 2 × 10^-5, hydrobromide",64 and 32
same,electrically induced contractions (Table III),"[2]; molar concentration 4 × 10^-5, hydrobromide",24 and 23
same,electrically induced contractions (Table III),[2]; molar concentration 8 × 10^-5,7
same,ED50,"anti-cough effectiveness; Cavia porcellus, po, 1 h",7.21 mg/kg
"COc1cc2c(cc1OC)-c1c(OC)c(OC)cc3c1[C@@H](C2)N(C)CC3 [1-glaucine-d-tartrate, l-glaucine-d-tartrate]",Oral ED50,anti-cough effectiveness; 60 min,"6,8 mg/kg"
"COc1cc2c(cc1OC)-c1c(OC)c(OC)cc3c1C(C2)N(C)CC3 (racemic) [d,l-glaucine]",minimal effective concentration,[3],0.4 µM
same,"toxicity, comparison in words",mice,considerably less toxic than d-glaucine
"COc1ccc2c3c1O[C@H]1[C@@H](O)C=C[C@H]4[C@@H](C2)N(C)CC[C@@]341 [codeine phosphate, reference compound]",ED50,cough pulses [1],20.6 mg/kg
same,minimal effective dose,"coughing centre; Felis catus, read-out: MED (minimal effective dose completely suppressing the coughing reflex)",6 mg/kg
same,Duration of cough suppression,coughing centre; at MED,18 to 54 min
same,"Cough pulses during 8 minutes, percent of control value, after 1 h",cough pulses [4]; 1 h,84%
same,"Cough pulses during 8 minutes, percent of control value, after 3 h",cough pulses [4]; 3 h,70%
same,"Cough pulses during 8 minutes, percent of control value, after 5 h",cough pulses [4]; 5 h,84%
same,"Cough pulses during 8 minutes, percent of control value, after 24 h",cough pulses [4]; 24 h,95%
same,Distance travelled average % (of intestine length),intestinal motility; 3 mg/kg,70.4%
same,Distance travelled average % (of intestine length),intestinal motility; 10 mg/kg,74.3%
same,Distance travelled average % (of intestine length),intestinal motility; 30 mg/kg,34.8%
same,Distance travelled average % (of intestine length),intestinal motility; 100 mg/kg,20.6%
same,"induced spontaneous activity, in words",[5],the spontaneous activity induced by the codeine phosphate itself increases the contractions
same,inhibition at 10 µM,"[2]; Cavia porcellus, molar concentration of about 10^-5, read-out: suppression of electrically induced contraction reflexes",~50%
same,electrically induced contractions (Table III),[2]; molar concentration 1 × 10^-5,49
same,electrically induced contractions (Table III),[2]; molar concentration 2 × 10^-5,36 and 52
same,electrically induced contractions (Table III),[2]; molar concentration 4 × 10^-5,58
same,electrically induced contractions (Table III),[2]; molar concentration 5 × 10^-6,85 and 51
same,LD50,"[6]; po, peroral, read-out: LD50 peroral",640 mg/kg
same,LD50,"[6]; sc, subcutaneous, read-out: LD50 subcutaneous",230 mg/kg
same,"toxicity, comparison in words",mice,about equal
same,Cough pulses percent of control value,cough pulses [7]; 50 mg/kg,37%
same,Cough pulses percent of control value,cough pulses [7]; 100 mg/kg,50%
same,"dose having about the same effect (codeine phosphate vs d,l-glaucine hydrobromide)",cough pulses [7]; guinea pigs,~75 mg per kg of body weight
